# Test results reported in US11541050B2, “Pyrimidine derivatives for the treatment of viral infections” (JANSSEN SCIENCES IRELAND UC, priority 2011, dated 2023).
# What was measured:
# Assay type in all cases: cell-based
# Set-up in all cases: unit not given here
# [1] = biological target: T1, human TLR7 (wild type sequence) (Homo sapiens, UniProt Q9NYK1); assay: TLR7 cellular NFκB-luc reporter assay, wild type TLR7; settings: lowest effective concentration, wild type TLR7
# T1 construct: expressed in transfected cells; host or cells: HEK293
# T1 sequence (Q9NYK1 27-1049): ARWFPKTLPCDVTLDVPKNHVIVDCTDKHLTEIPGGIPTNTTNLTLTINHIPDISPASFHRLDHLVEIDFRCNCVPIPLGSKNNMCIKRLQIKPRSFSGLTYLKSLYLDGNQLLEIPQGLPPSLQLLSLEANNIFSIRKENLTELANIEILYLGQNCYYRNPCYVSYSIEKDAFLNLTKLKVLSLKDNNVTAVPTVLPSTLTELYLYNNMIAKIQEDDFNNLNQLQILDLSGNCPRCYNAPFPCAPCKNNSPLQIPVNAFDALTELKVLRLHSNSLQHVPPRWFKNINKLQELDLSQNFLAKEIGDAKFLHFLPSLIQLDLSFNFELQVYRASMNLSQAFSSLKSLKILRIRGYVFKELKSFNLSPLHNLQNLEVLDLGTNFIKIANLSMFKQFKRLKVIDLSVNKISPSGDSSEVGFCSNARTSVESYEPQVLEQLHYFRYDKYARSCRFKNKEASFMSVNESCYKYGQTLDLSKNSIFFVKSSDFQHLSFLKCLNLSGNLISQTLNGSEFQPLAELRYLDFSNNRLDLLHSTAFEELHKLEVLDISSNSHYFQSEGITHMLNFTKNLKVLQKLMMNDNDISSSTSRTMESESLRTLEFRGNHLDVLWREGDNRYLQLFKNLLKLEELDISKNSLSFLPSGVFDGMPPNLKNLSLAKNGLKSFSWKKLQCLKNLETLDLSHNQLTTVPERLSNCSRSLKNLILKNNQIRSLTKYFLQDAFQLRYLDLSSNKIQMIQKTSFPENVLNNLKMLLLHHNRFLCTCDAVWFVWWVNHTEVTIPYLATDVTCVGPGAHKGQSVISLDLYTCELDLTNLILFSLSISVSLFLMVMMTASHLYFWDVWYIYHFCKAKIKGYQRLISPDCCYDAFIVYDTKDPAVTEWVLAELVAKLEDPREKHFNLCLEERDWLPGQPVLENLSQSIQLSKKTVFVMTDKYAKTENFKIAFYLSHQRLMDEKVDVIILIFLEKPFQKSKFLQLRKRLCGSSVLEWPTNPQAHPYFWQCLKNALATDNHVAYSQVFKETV
# In short: (§1)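 NFκB-driven luciferase in HEK293 transiently expressing TLR7 or TLR8, wild type or mutant lacking part of the second LRR; 6 h compound exposure; lowest effective concentration reported.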
# [2] = test system: human TLR7 mutant sequence comprising a deletion in the second leucine-rich repeat; assay: TLR7 cellular NFκB-luc reporter assay, mutant TLR7 with deletion in the second leucine-rich repeat; settings: lowest effective concentration
# Method: (§2) The ability of compounds to activate human TLR7 and/or TLR8 was assessed in a cellular reporter assay using HEK293 cells transiently transfected with a TLR7 or TLR8 expression vector and NFκB-luc reporter construct. In one instance the TLR expression construct expresses the respective wild type sequence or a mutant sequence comprising a deletion in the second leucine-rich repeat of the TLR.
# (§3) Briefly, HEK293 cells were grown in culture medium (DMEM supplemented with 10% FCS and 2 mM Glutamine). For transfection of cells in 10 cm dishes, cells were detached with Trypsin-EDTA, transfected with a mix of CMV-TLR7 or TLR8 plasmid (750 ng), NFκB-luc plasmid (375 ng) and a transfection reagent and incubated for 48 hours at 37° C. in a humidified 5% CO2 atmosphere. […] Thirty microliters of cells were then dispensed into each well in 384-well plates, where 10 μL of compound in 4% DMSO was already present. Following 6 hours incubation at 37° C., 5% CO2, the luciferase activity was determined by adding 15 μl of Steady Lite Plus substrate (Perkin Elmer) to each well and readout performed on a ViewLux ultraHTS microplate imager (Perkin Elmer). Dose response curves were generated from measurements performed in quadruplicates.
# [3] = test system: human TLR8 mutant sequence comprising a deletion in the second leucine-rich repeat; assay: TLR8 cellular NFκB-luc reporter assay, mutant TLR8 with deletion in the second leucine-rich repeat; settings: lowest effective concentration
# Method: as §2, §3
# [4] = biological target: T2, human TLR8 (wild type sequence) (Homo sapiens, UniProt Q9NR97); assay: TLR8 cellular NFκB-luc reporter assay, wild type TLR8; settings: lowest effective concentration
# T2 construct: expressed in transfected cells; host or cells: HEK293
# T2 sequence (Q9NR97 27-1041): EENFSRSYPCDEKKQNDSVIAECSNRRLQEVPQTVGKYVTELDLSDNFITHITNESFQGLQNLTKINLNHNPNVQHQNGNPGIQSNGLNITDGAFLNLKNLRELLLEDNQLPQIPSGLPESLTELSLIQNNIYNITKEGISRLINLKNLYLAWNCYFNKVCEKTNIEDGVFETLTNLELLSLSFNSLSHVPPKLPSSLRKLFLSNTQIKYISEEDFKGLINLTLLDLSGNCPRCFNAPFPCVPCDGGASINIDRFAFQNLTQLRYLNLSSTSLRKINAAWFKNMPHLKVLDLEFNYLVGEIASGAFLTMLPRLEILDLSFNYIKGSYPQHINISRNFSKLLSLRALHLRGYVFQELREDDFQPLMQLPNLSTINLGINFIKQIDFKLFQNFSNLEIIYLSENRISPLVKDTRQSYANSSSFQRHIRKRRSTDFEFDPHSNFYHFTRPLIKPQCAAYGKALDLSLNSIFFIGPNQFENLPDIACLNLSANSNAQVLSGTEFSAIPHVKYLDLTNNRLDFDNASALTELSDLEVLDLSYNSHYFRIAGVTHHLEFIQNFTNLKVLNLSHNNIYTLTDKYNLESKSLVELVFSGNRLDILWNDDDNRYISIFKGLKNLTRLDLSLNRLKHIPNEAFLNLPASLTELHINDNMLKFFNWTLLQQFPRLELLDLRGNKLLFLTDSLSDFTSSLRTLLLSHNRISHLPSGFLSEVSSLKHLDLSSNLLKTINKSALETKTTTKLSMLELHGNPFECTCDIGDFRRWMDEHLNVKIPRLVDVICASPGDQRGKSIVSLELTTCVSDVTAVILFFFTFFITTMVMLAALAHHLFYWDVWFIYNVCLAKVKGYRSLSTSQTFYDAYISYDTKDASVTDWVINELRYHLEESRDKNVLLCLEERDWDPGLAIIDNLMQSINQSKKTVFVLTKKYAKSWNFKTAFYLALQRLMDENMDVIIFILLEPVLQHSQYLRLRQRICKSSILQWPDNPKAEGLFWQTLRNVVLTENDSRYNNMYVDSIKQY
# In short: as §1
SMILES,TLR7-wt_LEC [1],TLR7-dIRR2_LEC [2],TLR8-dIRR2_LEC [3],TLR8-wt_LEC [4]
CCCC[C@@H](CO)Nc1nc(N)ncc1OCc1ccccn1 [Compound 243],0.343,0.103,0.190,
CCC[C@@H](CCO)Nc1nc(N)ncc1O[C@H]1CCc2c(Cl)ccnc21 [Compound 284],9.910,10.300,2.150,
CCCC[C@@H](CO)Nc1nc(N)ncc1OCc1cccc(C(=O)O)n1 [Compound 259],6.980,3.150,1.250,
CCCCNc1nc(N)ncc1OCCCC(=O)OC(C)C [Compound 221],0.654,0.859,0.496,
CCC[C@@H](CCO)Nc1nc(N)ncc1OCc1cn(-c2ccccc2)nn1 [Compound 285],0.266,0.530,0.036,
CCCC[C@@H](CCO)Nc1nc(N)ncc1OCCCc1ccc2c(c1)OCO2 [Compound 244],0.202,1.400,0.104,
CCCC(C)Nc1nc(N)ncc1OCCOC (stereo not drawn) [Compound 267],4.880,0.719,1.710,
CCCCNc1nc(N)ncc1OCCNC(=O)OCC [Compound 232],0.967,1.680,0.110,
CCCC[C@@H](CCO)Nc1nc(N)ncc1OCc1cc(C)n(C)n1 [Compound 237],0.156,1.830,0.051,
CCCCNc1nc(N)ncc1O[C@@H](C)c1ccccn1 [Compound 262],0.658,0.168,0.363,
C#CCOc1cnc(N)nc1NCCCC [Compound 248],2.120,0.654,0.529,
CCCCNc1nc(N)ncc1OCC(CC)OC (stereo not drawn) [Compound 288],>25,10.200,14.890,
CCC[C@@H](CCO)Nc1nc(N)nc(C)c1OCc1nccc2ccccc12 [Compound 286],0.620,7.660,0.128,
CCC[C@@H](CO)Nc1nc(N)ncc1OCc1cccc(C(N)=O)n1 [Compound 256],1.630,0.100,0.039,
CCC[C@@H](CCO)Nc1nc(N)ncc1OCc1ccccn1 [Compound 293],0.197,0.530,0.088,
CCC[C@@H](CCO)Nc1nc(N)ncc1OCc1ccncc1 [Compound 302],0.385,0.487,0.070,
CCC[C@@H](CO)Nc1nc(N)ncc1OCc1cn2ccccc2n1 [Compound 215],0.171,0.300,0.029,

SMILES,TLR7-wt_LEC [1],TLR7-dIRR2_LEC [2],TLR8-dIRR2_LEC [3],TLR8-wt_LEC [4]
CCC[C@@H](CO)Nc1nc(N)ncc1OCc1cc(C)n(C)n1 [Compound 257],0.697,0.444,0.304,
CCCC[C@@H](CO)Nc1nc(N)ncc1OCc1cccnn1 [Compound 278],0.880,0.270,0.136,
CCCC[C@@H](C[C@@H](C)O)Nc1nc(N)ncc1OC [Compound 300],1.740,0.720,0.475,
CCC[C@@H](CO)Nc1nc(N)ncc1OCc1cccnn1 [Compound 277],1.180,0.438,0.135,
CCCC[C@@H](CO)Nc1nc(N)ncc1OCc1cccnc1 [Compound 274],1.140,0.303,0.357,
CCCCNc1nc(N)ncc1OCCOCC(C)C [Compound 289],0.875,0.930,0.647,
CCC[C@@H](CO)Nc1nc(N)ncc1OCc1cccc(C(=O)O)n1 [Compound 260],4.850,2.830,>8.14,
CCC[C@@H](CO)Nc1nc(N)ncc1OCc1cc2ccccc2cn1 [Compound 258],0.074,0.153,0.060,
CCCCNc1nc(N)ncc1OCc1ncccc1F [Compound 213],0.225,0.207,0.032,
CCCCNc1nc(N)ncc1OCCCC(=O)OC [Compound 220],1.940,1.450,1.720,
CCCC[C@@H](CCO)Nc1nc(N)ncc1OCc1cn2ccccc2n1 [Compound 207],0.177,1.450,,0.063
CCC[C@@H](CCO)Nc1nc(N)ncc1OCc1cn2ccccc2n1 [Compound 205],0.369,1.110,,0.047
CCCC[C@@H](CO)Nc1nc(N)ncc1OCc1cccc(C)n1 [Compound 203],0.124,0.160,,0.054
CCC[C@@H](CO)Nc1nc(N)ncc1OCCCc1ccc(OC)cc1 [Compound 200],0.253,0.181,,0.200
CCCC[C@@H](CO)Nc1nc(N)ncc1OCCCc1ccc(OC)cc1 [Compound 201],0.566,0.647,,0.758
CCC[C@@H](CO)Nc1nc(N)ncc1OCCCc1ccc2c(c1)OCO2 [Compound 204],0.791,0.791,,0.493
